Experimental data: article PMC4168900, “Expeditive synthesis of trithiotriazine-cored glycoclusters and inhibition of Pseudomonas aeruginosa biofilm formation” (Beilstein Journal of Organic Chemistry, 2014)
pKd: −log10 of the molar value.

Key:
PAO1 = PAO1 growth inhibition control test; format: cell-based, Pseudomonas aeruginosa; details: PAO1 in the presence of clusters
Experimental: To check that differences observed were not due to bacterial growth defect in the presence of clusters, a growth inhibition control experiment was performed (Figure 4C). […] A) Biofilm growth assay in LB medium. B) Statistical analysis (above, n = 5, duplicate UV measurements) of ethanol-solubilized biofilm recovered from each well (below). C) PAO1 growth inhibition control test.

PAO1 biofilm = assay: P. aeruginosa adherence / biofilm formation assay, crystal violet staining; format: cell-based, Pseudomonas aeruginosa; details: 5 mM cluster, 24 h, 30 °C, LB medium, compared to glucose-bearing cluster 13 or absence of cluster
Experimental: The P. aeruginosa adherence assay was performed in 24 well microplates. Biofilms were obtained after 24 h of incubation at 30 °C in LB medium alone or in the presence or galactose, fucose, or glucose (control)-substituted trivalent clusters and stained with crystal violet (CV).
All reagents were commercial and used without further purification. Solvents were distilled from CaH2.
(§1) Reactions under microwave activation were performed using a Biotage Initiator system. NMR spectra were recorded at 293 K, unless otherwise stated, using a 300 or 400 or 500 MHz spectrometer.
Shifts are referenced relative to deuterated solvent residual peaks. Complete signal assignments from 1D and 2D NMR spectroscopy were based on COSY, HSQC, and HMBC correlations. High-resolution (HR-ESI- QToF) mass spectra were recorded using a Bruker MicroToF-Q II XL spectrometer. Thin-layer chromatography (TLC) was carried out on aluminum sheets coated with silica gel 60 F254 (Merck). […] IR spectra were recorded on a Shimadzu FTIR-8400S IR spectrophotometer and n are expressed in cm-1. NMR spectra were recorded on a Bruker DRX (1H at 300 or 400 MHz, 13C at 75 or 100 MHz) or on a Bruker AV500 spectrometer (1H at 500 MHz, 13C at 125 MHz). HRMS were recorded in electrospray ionization mode on a micro q-tof Micromass in strument (3000 V) with an internal lock mass (H3PO4) and an external lock mass (Leu- […]

lecB = lecB (Pseudomonas aeruginosa, UniProt Q9HYN5); assay: Isothermal titration calorimetry (ITC), binding to lecB
Experimental: (§2) The affinities of the designed glycoconjugates with lecA and lecB were determined by isothermal titration calorimetry (ITC) by addition of the ligands to a solution of lectin (Figure 3). Dissociation constants (Kd) and thermodynamic parameters (ΔG, ΔH, −TΔS) are listed in Table 1, together with the experimental binding stoichiometry (n), defined as the number of glycocluster ligands per monomer of lectin.
The observed β/N values in Table 1, which reflect the relative affinity per unit sugar, are 29 for the trivalent cluster and in the range of 12 for the bivalent clusters. These values most likely reflect sub-site binding by the heterocyclic rings. […] These clusters thus represent a readily accessible, highly soluble, and convenient tool for the investigation of the role of lecA and lecB in the formation of biofilms by Pseudomonas aeruginosa. […]
as §1
Shifts are referenced relative to deuterated solvent residual peaks. […] High-resolution (HR-ESI- QToF) mass spectra were recorded using a Bruker MicroToF-Q II XL spectrometer. […] IR spectra were recorded on a Shimadzu FTIR-8400S IR spectrophotometer and n are expressed in cm-1. […]

lecA [1] = target: T1, lecA (Pseudomonas aeruginosa, UniProt Q05097); assay: Dynamic light scattering (DLS), aggregation of lecA
Experimental: Dynamic light scattering experiments (DLS) were performed on the trivalent and divalent galactose-substituted clusters 1, 16 and 17, as well as the glucose-substituted cluster 13 as a negative control. […] The inability of these systems to efficiently aggregate lectins is in stark contrast to the hexavalent benzene cluster, which may be attributed to differences in rigidity and hydrophobicity between the two systems. It thus appears that the direct diaryl sulfide bridge presents a more optimal degree of semi-rigidity.
Figure 2 Dynamic light scattering experiments of bis-D-galactosyl proparyl cluster 16 with lecA. Distribution by mass for lecA + buffer (left) and lecA + 16 (200 μM, right) at 3 minute intervals. Additional experiments can be found in Supporting Information File 1.

lecA [2] = target: T1, lecA; assay: Isothermal titration calorimetry (ITC), binding to lecA; details: for ΔG / ΔH / β/N (improvement in affinity relative to the methyl glycoside, divided by the valency) / −TΔS / n (stoichiometry): T = 298 K; for n (stoichiometry): glycocluster ligands per monomer of lectin
Experimental: as §2, with “lectin. […]” for “lectin.”
Isothermal titration microcalorimetry (ITC):
Recombinant lyophilized lecA and lecB were dissolved in buffer (100 mM Tris-HCl pH 7.5, 6 µM CaCl2,) and degassed. The same procedure was applied for lecB with a different buffer (20mM Tris-HCl pH 7.54 100mM NaCl 100µM CaCl2). Protein concentration varied between 50 and 120 µM depending on the ligand affinity. Carbohydrate ligands were dissolved directly into the same buffer, degassed, and placed in the injection syringe. ITC was performed using a VP-ITC MicroCalorimeter from MicroCal Incorporated. lecA was placed into the 1.4478 mL sample cell, at 25°C. Titration was performed with 10 µL injections of carbohydrate ligands every 300 s. Data were fitted using MicroCal Origin 7 software according to standard procedures. Fitted data yielded the stoichiometry (n), the association constant (Ka), and the enthalpy of binding (∆H). Other thermodynamic parameters (i.e., changes in free energy ∆G and entropy ∆S) were calculated from the equation ∆G = ∆H - T∆S = -[…] in which T is the absolute […]
temperature and R = 8.314 Jmol-1K-1. […]

T1 sequence (Q05097 2-122): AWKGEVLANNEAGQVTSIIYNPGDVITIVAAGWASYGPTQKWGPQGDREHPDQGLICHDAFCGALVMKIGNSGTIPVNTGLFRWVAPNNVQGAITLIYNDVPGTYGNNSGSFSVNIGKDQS
Sequence of lecB (Q9HYN5 entry or part of it): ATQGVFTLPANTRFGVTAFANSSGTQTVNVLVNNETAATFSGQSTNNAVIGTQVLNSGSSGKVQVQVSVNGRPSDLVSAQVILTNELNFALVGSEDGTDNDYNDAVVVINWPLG

C[C@@H]1O[C@H](n2cc(CSc3nc(SCc4cn([C@H]5O[C@@H](C)[C@@H](O)[C@@H](O)[C@@H]5O)nn4)nc(SCc4cn([C@H]5O[C@@H](C)[C@@H](O)[C@@H](O)[C@@H]5O)nn4)n3)nn2)[C@@H](O)[C@H](O)[C@@H]1O [compound 14, 2,4,6-tris(1-(β-L-fucopyranosyl)triazol-4-ylmethylthio)-1,3,5-triazine]
bacterial growth defect (PAO1): No growth defect was observed | biofilm formation (PAO1 biofilm): statistically significant reduction in biofilm formation | pKd (lecB): 4.30

OC[C@H]1O[C@@H](n2cc(CSc3nc(SCc4cn([C@@H]5O[C@H](CO)[C@H](O)[C@H](O)[C@H]5O)nn4)nc(SCc4cn([C@@H]5O[C@H](CO)[C@@H](O)[C@H](O)[C@H]5O)nn4)n3)nn2)[C@H](O)[C@@H](O)[C@H]1O [compound 17, 2,4-bis(1-(β-D-galactopyranosyl)triazol-4-ylmethylthio)-6-(1-(β-D-glucopyranosyl)triazol-4-ylmethylthio)-1,3,5-triazine]
aggregation of lecA (lecA [1]): only the divalent bis-D-Gal propargyl cluster 16 induces rapid aggregation of lecA | pKd (lecA [2]): 5.47 | ΔG (lecA [2]; ITC): -7.48 kcal/mol | ΔH (lecA [2]; ITC): -12.2 kcal/mol | β/N (improvement in affinity relative to the methyl glycoside, divided by the valency) (lecA [2]; ITC): 14 | −TΔS (lecA [2]; ITC): 4.71 kcal/mol | n (stoichiometry) (lecA [2]; ITC): 0.54

OC[C@H]1O[C@@H](n2cc(CSc3nc(SCc4cn([C@@H]5O[C@H](CO)[C@@H](O)[C@H](O)[C@H]5O)nn4)nc(SCc4cn([C@@H]5O[C@H](CO)[C@@H](O)[C@H](O)[C@H]5O)nn4)n3)nn2)[C@H](O)[C@@H](O)[C@@H]1O [compound 13, 2,4,6-tris(1-(β-D-glucopyranosyl)triazol-4-ylmethylthio)-1,3,5-triazine]
aggregation of lecA (lecA [1]): only the divalent bis-D-Gal propargyl cluster 16 induces rapid aggregation of lecA | bacterial growth defect (PAO1): No growth defect was observed | ΔG (lecA [2]; ITC): <0 kcal/mol | affinity for the lectin (in words) (lecA [2]; ITC, negative control): no affinity for the lectin

CO[C@@H]1O[C@H](CO)[C@H](O)[C@H](O)[C@H]1O [β-D-GalOMe, methyl β-D-galactoside]
β/N (improvement in affinity relative to the methyl glycoside, divided by the valency) (lecA [2]; ITC): 1

C#CCSc1nc(SCc2cn([C@@H]3O[C@H](CO)[C@H](O)[C@H](O)[C@H]3O)nn2)nc(SCc2cn([C@@H]3O[C@H](CO)[C@H](O)[C@H](O)[C@H]3O)nn2)n1 [compound 16, 2,4-bis(1-(β-D-galactopyranosyl)triazol-4-ylmethylthio)-6-(prop-2-ynylthio)-1,3,5-triazine]
aggregation of lecA (lecA [1]): induces rapid aggregation of lecA | pKd (lecA [2]): 5.36 | ΔG (lecA [2]; ITC): -7.29 kcal/mol | ΔH (lecA [2]; ITC): -11.4 kcal/mol | β/N (improvement in affinity relative to the methyl glycoside, divided by the valency) (lecA [2]; ITC): 11 | −TΔS (lecA [2]; ITC): 4.11 kcal/mol | n (stoichiometry) (lecA [2]; ITC): 0.79

OC[C@H]1O[C@@H](n2cc(CSc3nc(SCc4cn([C@@H]5O[C@H](CO)[C@H](O)[C@H](O)[C@H]5O)nn4)nc(SCc4cn([C@@H]5O[C@H](CO)[C@H](O)[C@H](O)[C@H]5O)nn4)n3)nn2)[C@H](O)[C@@H](O)[C@H]1O [compound 1, 2,4,6-tris(1-(β-D-galactopyranosyl)triazol-4-ylmethylthio)-1,3,5-triazine]
aggregation of lecA (lecA [1]): only the divalent bis-D-Gal propargyl cluster 16 induces rapid aggregation of lecA | bacterial growth defect (PAO1): No growth defect was observed | pKd (lecA [2]): 5.96 | ΔG (lecA [2]; ITC): -8.15 kcal/mol | ΔH (lecA [2]; ITC): -15.8 kcal/mol | β/N (improvement in affinity relative to the methyl glycoside, divided by the valency) (lecA [2]; ITC): 29 | −TΔS (lecA [2]; ITC): 7.62 kcal/mol | n (stoichiometry) (lecA [2]; ITC): 0.31 | biofilm formation (PAO1 biofilm): statistically significant reduction in biofilm formation
